Measured values published in the NIST ThermoML archive (doi:10.1016/j.jct.2015.07.044).
Numbers after ± are expanded uncertainties.

Experiment: excess molar enthalpy (molar enthalpy of mixing); xn = mol fraction of the nth substance listed
Details: 298.15 K, 100 kPa, Liquid, Isoperibol calorimetry

CCCOCC(C)O (stereo not given) [1-propoxy-2-propanol] + O
Details	excess molar enthalpy [kcal/mol]
x1 = 0.00199	-0.012 ± 0.00239
x1 = 0.00509	-0.0263 ± 0.00239
x1 = 0.00988	-0.0454 ± 0.00239
x1 = 0.01524	-0.0693 ± 0.00239
x1 = 0.02082	-0.0765 ± 0.00239
x1 = 0.02573	-0.0884 ± 0.00478
x1 = 0.0299	-0.11 ± 0.00478
x1 = 0.03983	-0.12 ± 0.00478
x1 = 0.05248	-0.124 ± 0.00478
x1 = 0.09463	-0.141 ± 0.00478
x1 = 0.09856	-0.141 ± 0.00478
x1 = 0.1198	-0.146 ± 0.00717
x1 = 0.1284	-0.146 ± 0.00717
x1 = 0.1504	-0.148 ± 0.00717
x1 = 0.1711	-0.148 ± 0.00717
x1 = 0.2286	-0.148 ± 0.00717
x1 = 0.297	-0.141 ± 0.00478
x1 = 0.3791	-0.131 ± 0.00478
x1 = 0.4088	-0.129 ± 0.00478
x1 = 0.4372	-0.124 ± 0.00478
x1 = 0.494	-0.105 ± 0.00478
x1 = 0.5971	-0.0837 ± 0.00478
x1 = 0.6988	-0.0669 ± 0.00239
x1 = 0.7467	-0.0598 ± 0.00239
x1 = 0.8056	-0.0478 ± 0.00239
x1 = 0.8534	-0.0382 ± 0.00239
x1 = 0.8713	-0.0335 ± 0.00239
x1 = 0.9051	-0.0263 ± 0.00239
x1 = 0.9205	-0.0215 ± 0.00239
x1 = 0.9499	-0.0143 ± 0.00239
